Inconclusive results are not listed.
Each compound was assayed on Clone20 osteoblast Shn3 3'UTR firefly luciferase, 24 h (assay: Schnurri-3 3'UTR-luciferase signal suppressors – cell-based, Clone20 osteoblasts, luminescence, dry powder, set 2, dose response (AID 743417)).

Compared with `Cc1cc(NC(=O)CCCS(=O)(=O)c2nc(-c3cccs3)cc(C(F)(F)F)n2)no1`, `COc1ccc(CC(N)c2csc(NC(=O)Nc3cccc(C(F)(F)F)c3)n2)cc1` (stereo not drawn) is 4.9-fold higher in AC50: 1.73 µM for the first, 8.4 µM for the second.

Compared with `O=C(Nc1cccc(-c2ccc(N3CCCCC3)nn2)c1)C(F)(F)F`, `CC1CCN(c2ccc(-c3cccc(NC(=O)C(F)(F)F)c3)nn2)CC1` is 3.3-fold lower in AC50: 9.07 µM for the first, 2.74 µM for the second.

First: CC[C@H]1CN2CCc3cc(OC)c(OC)cc3[C@@H]2C[C@@H]1C[C@H]1NCCc2cc(OC)c(OC)cc21
Second: COc1cc(CC(=O)Nc2nc(-c3ccc(F)c(F)c3)cs2)cc(OC)c1OC
The AC50 of the first is lower: under 0.26 µM for the first, 3.92 µM for the second.

First: CN1CCN(S(=O)(=O)c2ccc(N(C)Cc3ccc(C(F)(F)F)cc3)c([N+](=O)[O-])c2)CC1
Second: CCC(=O)N1c2ccc(S(=O)(=O)N3CCN(c4ccc([N+](=O)[O-])cc4)CC3)cc2CC1C (stereo not drawn)
The AC50 of the first is 3.3-fold higher: 6.3 µM for the first, 1.93 µM for the second.

Going from `O=C1NC2C(=CC(O)C(O)C2O)c2cc3c(cc21)OCO3` (stereo not drawn) to `O=C1C=C(c2ccnc3cc(Cl)ccc23)C[C@@H](c2ccc3c(c2)OCO3)C1`, the AC50 falls from 2.22 µM to 1.36 µM (1.6-fold).

Going from `CCOc1cccc(CNCCc2c(C)[nH]c3ccc(OC(F)(F)F)cc23)c1O` to `CCN(CC)CCCNc1nc2ccccc2c2[nH]c3ccc(OC)cc3c12`, the AC50 rises from 0.611 µM to 12.3 µM (20-fold).

Going from `Nc1nc(N)c2cc(CNc3ccc(Cl)c(Cl)c3)ccc2n1` to `CCc1ccc(NC(=O)c2nc(S(=O)(=O)Cc3ccccc3)ncc2Cl)cc1`, the AC50 falls from 0.956 µM to 0.551 µM (1.7-fold).

Compared with `CC(C)n1c(/C=C/[C@@H](O)C[C@@H](O)CC(=O)O)c(-c2ccc(F)cc2)c2ccccc21`, `CC(C)NCC(O)COc1cccc2ccccc12` (stereo not drawn) is 9.8-fold higher in AC50: 2.4 µM for the first, 23.6 µM for the second.

First: Cc1ccc(S(=O)(=O)N2CCCCC2)cc1NC(=O)Cn1ncc(Cl)c(Cl)c1=O
Second: CCC1CCCCN1S(=O)(=O)c1ccc(NC(=O)c2nc(S(C)(=O)=O)ncc2Cl)cc1 (stereo not drawn)
The AC50 of the first is 13-fold higher: 4.32 µM for the first, 0.341 µM for the second.

First: O=C(/C=C/c1ccc(O)c(O)c1)OCCc1ccccc1
Second: CC(C)(C)NCC(=Cc1ccccc1)C(=O)c1ccccc1
The AC50 of the first is 5.1-fold lower: 0.877 µM for the first, 4.51 µM for the second.

`CC1CCC/C=C/C(=O)c2c(O)cc(O)cc2CC(=O)O1` (stereo not drawn) and `O=C(OCC12CC3CC(CC(C3)C1)C2)c1ccc(NCc2cc(O)ccc2O)cc1` are within 1.5-fold of each other in AC50: 4.12 µM for the first, 3.25 µM for the second.

`Cc1cc(C(=O)CSc2nc(N)cc(=O)[nH]2)c(C)n1-c1cccc(F)c1` and `Cc1cc(C)n2nc(SCC(=O)c3cc(C)n(-c4cc(C)on4)c3C)nc2n1` are within 1.5-fold of each other in AC50: 1.66 µM for the first, 2.46 µM for the second.

Compared with `COc1ccc(C(NC(C)=O)c2cc(Cl)c3cccnc3c2O)cc1` (stereo not drawn), `CC(=O)NC(c1ccc(Cl)cc1Cl)c1ccc2cccnc2c1O` (stereo not drawn) is 3.5-fold lower in AC50: 1.61 µM for the first, 0.465 µM for the second.

`CN(Cc1ccc(OC(F)F)cc1)C(=O)c1cccc(S(=O)(=O)N2CCN(Cc3ccccc3)CC2)c1` and `CN(Cc1ccc(Cl)c(Cl)c1)C(=O)c1cccc(S(=O)(=O)N2CCN(Cc3ccccc3)CC2)c1` are within 1.5-fold of each other in AC50: 2.37 µM for the first, 3.47 µM for the second.

`COC(=O)c1cn(NC(=O)c2cc([N+](=O)[O-])ccc2F)c(=O)c2ccccc12` and `O=C(Nc1ccc([N+](=O)[O-])cc1Cl)c1cc(Cl)ccc1O` are within 1.5-fold of each other in AC50: 2.85 µM for the first, 3 µM for the second.

Going from `CCCCC(=O)NC(c1ccc(Cl)cc1Cl)c1ccc2cccnc2c1O` (stereo not drawn) to `CCC(=O)NC(C)c1cc(Cl)c2cccnc2c1O` (stereo not drawn), the AC50 rises from 0.67 µM to 5.19 µM (7.7-fold).

First: Cc1c(CCOC(=O)C23CC4(C)CC(C)(CC(C)(C4)C2)C3)sc[n+]1CC(=O)c1ccccc1
Second: Cc1cc(C)nc(S/C=C/C(=O)c2ccccc2)n1
The AC50 of the first is 3.4-fold higher: 5.84 µM for the first, 1.72 µM for the second.

Compared with `Cc1ccc(NS(=O)(=O)c2ccc(C(=O)NC3CCN(Cc4ccccc4)CC3)cc2)cc1`, `COc1ccccc1N(C)S(=O)(=O)c1ccc(C(=O)Nc2cc(F)ccc2C)cc1` is 2.9-fold higher in AC50: 4.69 µM for the first, 13.8 µM for the second.

Compared with `CCCC(c1nnnn1Cc1ccc(OC)cc1)N1CCN(c2ccccc2)CC1` (stereo not drawn), `CCOc1ccc(N2C(=O)CC(Sc3nnnn3-c3ccccc3)C2=O)cc1` (stereo not drawn) is 2.8-fold lower in AC50: 31.9 µM for the first, 11.5 µM for the second.

`O=C(CSc1c2c(nc3ccc(Cl)cc13)CCCC2)N1CCN(C(=O)c2ccco2)CC1` and `O=C(Nc1ccc(N2CCN(C(=O)c3ccco3)CC2)c(Cl)c1)c1cc2ccccc2o1` are within 1.5-fold of each other in AC50: 3.75 µM for the first, 5 µM for the second.

First: Cc1[nH]nc2ccc(-c3cncc(OC[C@@H](N)Cc4c[nH]c5ccccc45)c3)cc12
Second: c1ccc(-c2cc(CSc3nc4ccccc4[nH]3)on2)cc1
The AC50 of the first is 2.1-fold lower: 1.77 µM for the first, 3.76 µM for the second.

`Cc1nc2c(OCc3ccc(Cl)cc3Cl)cccn2c1N(C)CC1CC1` and `Cn1c(/C=C/c2ccc(Cl)cc2Cl)c([N+](=O)[O-])c(=O)n(C)c1=O` are within 1.5-fold of each other in AC50: 10 µM for the first, 6.87 µM for the second.

Compared with `Cc1nc(N2CCN(C(=O)c3ccco3)CC2)c2c3c(sc2n1)CC(C)CC3` (stereo not drawn), `CC(=O)N1c2ccc(S(=O)(=O)N3CCC(C(=O)N4CCN(c5ccccc5F)CC4)CC3)cc2CC1C` (stereo not drawn) is 2.3-fold higher in AC50: 2.33 µM for the first, 5.41 µM for the second.

Going from `CS(=O)(=O)c1ccc(C(=O)OCC(=O)Nc2cccnc2Cl)cc1[N+](=O)[O-]` to `Cn1cnc([N+](=O)[O-])c1S(=O)(=O)Oc1ccccc1`, the AC50 falls from 9.09 µM to 3.83 µM (2.4-fold).

Going from `CCc1nnc(NC(=O)c2cccc(C(=O)Nc3nnc(CC)s3)n2)s1` to `O=C(Nc1nc(-c2ccccn2)cs1)c1ccc(Cl)s1`, the AC50 falls from 1.45 µM to 0.817 µM (1.8-fold).

First: COc1ccc(Nc2nc(N3CCCC3)c3ccccc3n2)cc1
Second: Cn1c(COc2ccc(Br)cc2)nnc1SC1CCc2ccccc2C1=O (stereo not drawn)
The AC50 of the first is 9.6-fold lower: 3.67 µM for the first, 35.2 µM for the second.

First: O=S(=O)(Nc1cc(Sc2ncn[nH]2)c(O)c2ccccc12)c1ccccc1
Second: c1ccc(-c2noc(-c3ccc4ccccc4c3)n2)nc1
The AC50 of the first is 3.8-fold higher: 7.55 µM for the first, 1.98 µM for the second.

`CCCCCCCCOC(=O)c1cc([N+](=O)[O-])c(Sc2ncnc3nc[nH]c23)c([N+](=O)[O-])c1` and `CCCN(CCC)S(=O)(=O)c1ccc(C(=O)Nc2nnc(-c3cc(OC)cc(OC)c3)o2)cc1` are within 1.5-fold of each other in AC50: 2.81 µM for the first, 2.64 µM for the second.

Going from `COc1cc(/C=C/C(=O)c2ccc3c(c2)OCCO3)cc(Br)c1OCC(=O)N(C)C` to `COc1cccc(CN(C)C(=O)c2ccc(OCC(=O)Nc3cccc(C(F)(F)F)c3)c(OC)c2)c1`, the AC50 rises from 2.63 µM to 4.93 µM (1.9-fold).

Going from `C=CC[C@H](CC(=O)N(CCO)Cc1ccccc1)C(=O)NC[C@H](OC(=O)[C@@H](CC=C)Cc1ccc(F)cc1)c1ccccc1` to `COC(=O)C[C@]1(C(=O)OC)CN(C#N)N(c2ccc(Cl)cc2)C12c1ccccc1-c1ccccc12`, the AC50 falls from 10.7 µM to 1.88 µM (5.7-fold).

First: CC(=O)OC[C@]12CC[C@H]3[C@@](C)(CC[C@H]4C(C)(C)CCC[C@]34C)[C@@H]1CC(C1=CC(=O)OC1O)O2 (stereo partly drawn)
Second: CC(=O)N1c2ccc(S(=O)(=O)N3CCC(C(=O)N4CCN(c5cccc(C(F)(F)F)c5)CC4)CC3)cc2CC1C (stereo not drawn)
The AC50 of the first is 2-fold lower: 0.634 µM for the first, 1.28 µM for the second.

First: Cc1c(C(C)C)c(=O)n(-c2ccc(S(=O)(=O)NCc3ccccc3)cc2)n1C
Second: CCCn1c(C)cc(C(=O)CN2C(=O)c3ccccc3S2(=O)=O)c1C
The AC50 of the first is 2.5-fold lower: 1.18 µM for the first, 2.98 µM for the second.

First: CNC[C@H](CC1CCCCC1)NC[C@H](Cc1ccccc1)NCCC12CC3CC(CC(C3)C1)C2
Second: CCCCc1ccc(NC(=O)C(=O)NCCN2CCN(Cc3ccc([N+](=O)[O-])cc3)CC2)cc1
The AC50 of the first is 4.9-fold higher: 5.51 µM for the first, 1.13 µM for the second.

`C=CCNc1nc2c(c(=O)n(C)c(=O)n2C)n1CCCCCC` and `CC(C)[C@H](NC(=O)OC(C)(C)C)c1nnc(S(=O)(=O)Cc2c(F)cccc2Cl)o1` are within 1.5-fold of each other in AC50: 0.761 µM for the first, 1.08 µM for the second.

Going from `COc1ccc(C(=O)NC2CCCc3c2cnn3-c2cccc(C)c2C)c(OC)n1` (stereo not drawn) to `CC(C)(C)C(=O)Nc1ccc(NC(=O)c2ccco2)nc1`, the AC50 falls from 1.96 µM to 1.17 µM (1.7-fold).

Compared with `O=c1oc2ccccc2cc1-c1cn2ccccc2n1`, `Cc1ccc(S(=O)(=O)N2CCC3(CC2)OCCN3S(=O)(=O)c2c(C)cc(C)cc2C)cc1` is 1.9-fold higher in AC50: 3.64 µM for the first, 6.81 µM for the second.

In the case of `CCN1CCN(Cc2ccc(NC(=O)c3ccc(C)c(NC(=O)c4c[nH]c5cc(C(F)(F)F)ccc5c4=O)c3)cc2C(F)(F)F)CC1`, the AC50 was 3.13 µM.

— PubChem BioAssay AID743417 (Broad Institute, 2014)
